Data as given in patent US11028066B2, “Inhibitors of lysine specific demethylase-1” (CELGENE QUANTICEL RESEARCH, INC., priority 2014, dated 2021).
pIC50: −log10 of the molar value.

Key:
full-length human LSD1 = full-length human LSD1 (Homo sapiens (Human), UniProt O60341); assay: In vitro enzyme inhibition assay LSD-1 (TR-FRET); assay type: biochemical; conditions: H3K4me1-biotin peptide
Summary of the method: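 Demethylase activity of full-length human LSD1 was detected by TR-FRET after 1 hour incubation at room temperature. Excitation was at 320 nm, with emission at 615 nm and 665 nm. IC50 values were derived from the inhibition data.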

THP-1 (AML) cells = assay: LSD1 CD11b cellular assay (flow cytometry); assay type: cell-based; conditions: Homo sapiens, THP-1, 96 h; CD11b expressing cells, 4 days incubation
Kasumi-1 = Kasumi-1 AML cell line proliferation assay (Cell-MTS assay); assay type: cell-based; conditions: Homo sapiens, 168 hours incubation
Excerpt: Colorimetric cellular assay to assess the ability of LSD-1 small molecule inhibitors to effect the proliferation of the established AML cancer cell line Kasumi-1.
This Cell-MTS assay is a 7-day plate based colorimetric assay which quantifies the amount of newly generated NADH in the presence and absence of test compound. These NADH levels are used as a proxy for the quantification of cancer cell proliferation.
The established cancer cell line Kasumi-1 with a verified p53 mutation were purchased from American Type Culture Collection (ATCC) and routinely passaged according to ATCC published protocols. For routine assay these cells were seeded at a density of 20,000 cells per 96-well. 24 hours after plating, cells received an 11 point dilution of test compound with final concentration ranges from 100 μM to 2.0 nM. Cells are incubated in the presence of compound for 168 hours at 37° C., 5% CO2. At the end of this compound incubation period, 80 μl of media is removed and 20 μL of CellTiter 96® AQueous Non-Radioactive Cell Proliferation Assay solution (Promega) is added. The cells are incubated until the OD490 is >0.6. IC50 values are calculated using the IDBS XLfit software package and include background subtracted OD490 values and normalization to DMSO controls.
Table 5 provides the Kasumi-1 cellular IC50 values of various substituted heterocyclic compounds disclosed herein.

pIC50 (full-length human LSD1)	pIC50 (THP-1 (AML) cells)	SMILES	pIC50 (Kasumi-1)
> 7.00	> 7.00	COc1ccc(-c2c(-c3ccc(C#N)c(F)c3)cc(NC[C@H]3CCNC3)c(=O)n2C)cc1 [Example 70, (S)-2-fluoro-4-(2-(4-methoxyphenyl)-1-methyl-6-oxo-5-(pyrrolidin-3-ylmethylamino)-1,6-dihydropyridin-3-yl)benzonitrile]	≥ 7.00
> 7.00	> 7.00	CN(C)c1ccc(-c2c(-c3ccc(C#N)c(F)c3)cc(N3CCC(N)CC3)c(=O)n2C)cn1 [Example 91, 4-{5-(4-aminopiperidyl)-2-[6-(dimethylamino)(3-pyridyl)]-1-methyl-6-oxo(3-hydropyridyl)}-2-fluorobenzenecarbonitrile]	≥ 7.00
> 7.00	6.00 to 7.00	CCc1ccc(-c2c(-c3ccc(C#N)cc3)nc(NC[C@H]3CCNC3)c(=O)n2C)cc1 [Example 28, 4-[3-(4-ethylphenyl)-4-methyl-5-oxo-6-{[(3S)-pyrrolidin-3-ylmethyl]amino}-4,5-dihydropyrazin-2-yl]benzonitrile]	≥ 7.00
> 7.00	> 7.00	Cc1ccc(-c2c(-c3ccc(C#N)cc3)cc(N3CCC(N)CC3)c(=O)n2C)cc1 [Example 75, 4-[5-(4-aminopiperidin-1-yl)-1-methyl-2-(4-methylphenyl)-6-oxopyridin-3-yl]benzonitrile]	≥ 7.00
> 7.00	> 7.00	COCCn1c(-c2ccc(C)cc2)c(-c2ccc(C#N)cc2)nc(N2CCC(N)CC2)c1=O [Example 36, 4-[6-(4-amino-piperidin-1-yl)-4-(2-methoxy-ethyl)-5-oxo-3-p-tolyl-4,5-dihydro-pyrazin-2-yl]-benzonitrile]	≥ 7.00
> 7.00	> 7.00	Cn1c(-c2ccc(C3CC3)cc2)c(-c2ccc(C#N)cc2)nc(N2CCC(N)CC2)c1=O [Example 33, 4-[6-(4-aminopiperidin-1-yl)-3-(4-cyclopropylphenyl)-4-methyl-5-oxo-4,5-dihydropyrazin-2-yl]benzonitrile]	≥ 7.00
> 7.00	> 7.00	COc1ccc(-c2c(-c3ccc(C#N)cc3)nc(NC[C@H]3CCNC3)c(=O)n2C)cc1 [Example 31, 4-[3-(4-methoxyphenyl)-4-methyl-5-oxo-6-{[(3S)-pyrrolidin-3-ylmethyl]amino}-4,5-dihydropyrazin-2-yl]benzonitrile]	≥ 7.00
> 7.00	> 7.00	COc1ccc(-c2c(-c3ccc(C#N)c(F)c3)cc(N3CCC(N)CC3)c(=O)n2C)cc1F [Example 84, 4-[5-(4-aminopiperidin-1-yl)-2-(3-fluoro-4-methoxyphenyl)-1-methyl-6-oxopyridin-3-yl]-2-fluorobenzonitrile]	≥ 7.00
> 7.00	> 7.00	COc1ccc(-c2c(-c3ccc(C#N)cc3)cc(N3CCC(N)CC3)c(=O)n2C)cc1 [Example 77, 4-[5-(4-aminopiperidin-1-yl)-2-(4-methoxyphenyl)-1-methyl-6-oxopyridin-3-yl]benzonitrile]	≥ 7.00
> 7.00	> 7.00	Cn1c(-c2ccc(C3CC3)cc2)c(-c2ccc(C#N)c(F)c2)cc(NC[C@H]2CCNC2)c1=O [Example 74, (S)-4-(2-(4-cyclopropylphenyl)-1-methyl-6-oxo-5-(pyrrolidin-3-ylmethylamino)-1,6-dihydropyridin-3-yl)-2-fluorobenzonitrile]	≥ 7.00
